Experimental findings from US9623028B2, “Methods of treating a cancer using substituted pyrrolopyrimidine compounds, compositions thereof” (Signal Pharmaceuticals, LLC, priority 2014, dated 2017) are described below.

Assay [1] deals with CLK1 (Homo sapiens (Human), UniProt P49759). The assay is described as follows: biochemical. Particulars: read-out: CLK1 (% Inh.), % inhibition at 3 μM.
The target of assay [2] is CLK2 (Homo sapiens (Human), UniProt P49760). The experiment in a line: biochemical. As to conditions: read-out: CLK2 (% Inh.), % inhibition at 3 μM.
CLK2, sequence (P49760 whole entry): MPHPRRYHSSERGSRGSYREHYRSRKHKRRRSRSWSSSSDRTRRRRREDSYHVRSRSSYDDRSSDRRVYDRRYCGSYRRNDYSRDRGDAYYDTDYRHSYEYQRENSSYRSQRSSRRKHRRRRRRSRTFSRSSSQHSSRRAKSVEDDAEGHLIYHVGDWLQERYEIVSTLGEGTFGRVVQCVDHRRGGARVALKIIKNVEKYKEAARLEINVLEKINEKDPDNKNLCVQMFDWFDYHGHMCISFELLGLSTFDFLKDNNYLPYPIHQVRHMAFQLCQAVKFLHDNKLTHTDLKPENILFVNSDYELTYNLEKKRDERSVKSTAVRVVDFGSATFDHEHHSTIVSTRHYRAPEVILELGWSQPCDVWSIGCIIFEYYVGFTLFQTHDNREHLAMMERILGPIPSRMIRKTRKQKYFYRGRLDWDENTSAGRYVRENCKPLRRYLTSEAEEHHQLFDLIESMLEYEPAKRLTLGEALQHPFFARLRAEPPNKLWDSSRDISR

CLK1, sequence (P49759 whole entry): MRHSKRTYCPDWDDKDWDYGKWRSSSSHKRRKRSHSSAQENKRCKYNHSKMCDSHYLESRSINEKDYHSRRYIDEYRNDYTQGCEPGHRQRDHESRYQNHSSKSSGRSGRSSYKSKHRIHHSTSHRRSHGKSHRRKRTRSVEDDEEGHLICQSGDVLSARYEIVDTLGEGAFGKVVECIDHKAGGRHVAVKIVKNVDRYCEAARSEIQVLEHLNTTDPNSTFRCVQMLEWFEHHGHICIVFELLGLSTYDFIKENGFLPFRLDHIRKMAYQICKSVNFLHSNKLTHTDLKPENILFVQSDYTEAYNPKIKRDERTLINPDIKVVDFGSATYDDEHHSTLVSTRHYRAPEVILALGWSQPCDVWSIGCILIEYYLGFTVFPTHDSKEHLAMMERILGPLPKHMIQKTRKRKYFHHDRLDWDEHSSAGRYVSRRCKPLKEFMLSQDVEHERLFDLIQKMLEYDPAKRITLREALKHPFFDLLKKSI

Usually inhibition stands for the relative decrease from the control value, in per cent. On to `CNC(=O)c1ccc(Nc2nc(OC3CCCC3)c3c(-c4ccc(O)cc4)c[nH]c3n2)c(C(C)C)c1` [Compound 11, 4-(4-(cyclopentyloxy)-5-(4-hydroxyphenyl)-7H-pyrrolo[2,3-d]pyrimidin-2-ylamino)-3-isopropyl-N-methylbenzamide], for which the inhibition at 3 µM was 95% in assay [1] and 94% in assay [2].
On the same counts, the results for `CNC(=O)c1ccc(Nc2nc(NC3CCCC3)c3c(-c4ccc(O)cc4)c[nH]c3n2)c(OC)c1` [Compound 16, 4-(4-(cyclopentylamino)-5-(4-hydroxyphenyl)-7H-pyrrolo[2,3-d]pyrimidin-2-ylamino)-3-methoxy-N-methylbenzamide] are 92% and 90%.
For `CNC(=O)c1ccc(Nc2nc(OC3CCOCC3)c3c(-c4ccc(O)cc4)c[nH]c3n2)c(OC)c1` [Compound 17, 4-(5-(4-hydroxyphenyl)-4-(tetrahydro-2H-pyran-4-yloxy)-7H-pyrrolo[2,3-d]pyrimidin-2-ylamino)-3-methoxy-N-methylbenzamide] the same measures were 97% and 98%.
For `CNC(=O)c1ccc(Nc2nc(OC3CCCC3)c3c(-c4cccnc4)c[nH]c3n2)c(OC)c1` [Compound 58, 4-(4-(cyclopentyloxy)-5-(pyridin-3-yl)-7H-pyrrolo[2,3-d]pyrimidin-2-ylamino)-3-methoxy-N-methylbenzamide] the same measures were 96% and 103%.
For the compound `CNC(=O)c1ccc(Nc2nc(OC3CCCC3)c3c(-c4ccc(OC)c(OC)c4)c[nH]c3n2)c(OC)c1` [Compound 64, 4-(4-(cyclopentyloxy)-5-(3,4-dimethoxyphenyl)-7H-pyrrolo[2,3-d]pyrimidin-2-ylamino)-3-methoxy-N-methylbenzamide], the inhibition at 3 µM in assay [1] was 68%; in assay [2], 99%.
Regarding `COc1nc(Nc2ccc(C(=O)N(C)C)cc2C)nc2[nH]cc(-c3ccncc3)c12` [Compound 89, 4-(4-methoxy-5-(pyridin-4-yl)-7H-pyrrolo[2,3-d]pyrimidin-2-ylamino)-N,N,3-trimethylbenzamide], the inhibition at 3 µM amounted to 101% in assay [1] and 100% in assay [2].
For `Cc1nc2ccc(-c3c[nH]c4nc(Nc5ccc(C(=O)N(C)C)cc5C)nc(O[C@H]5CCOC5)c34)cc2o1` [Compound 98, (S)-N,N,3-trimethyl-4-(5-(2-methylbenzo[d]oxazol-6-yl)-4-(tetrahydrofuran-3-yloxy)-7H-pyrrolo[2,3-d]pyrimidin-2-ylamino)benzamide] the same measures were 103% and 104%.
For `CNC(=O)c1ccc(Nc2nc(OC)c3c(-c4ccc(OC)nc4)c[nH]c3n2)c(OC)c1` [Compound 118, 3-methoxy-4-(4-methoxy-5-(6-methoxypyridin-3-yl)-7H-pyrrolo[2,3-d]pyrimidin-2-ylamino)-N-methylbenzamide], the inhibition at 3 µM in assay [1] and in assay [2] was 98% each time.
Regarding `CNC(=O)c1ccc(Nc2nc(O[C@H]3CCOC3)c3c(-c4ccc5nc(C)oc5c4)c[nH]c3n2)c(C)c1` [Compound 133, (S)-N,3-dimethyl-4-(5-(2-methylbenzo[d]oxazol-6-yl)-4-(tetrahydrofuran-3-yloxy)-7H-pyrrolo[2,3-d]pyrimidin-2-ylamino)benzamide], the inhibition at 3 µM was determined as 104% in assay [1] and 101% in assay [2].
For `CNC(=O)c1ccc(Nc2nc(OCCOC)c3c(-c4ccc5nc(C)oc5c4)c[nH]c3n2)c(OC)c1` [Compound 139, 3-methoxy-4-(4-(2-methoxyethoxy)-5-(2-methylbenzo[d]oxazol-6-yl)-7H-pyrrolo[2,3-d]pyrimidin-2-ylamino)-N-methylbenzamide] the same measures were 104% and 99%.
On the same counts, the results for `Cc1cc(C(=O)N(C)C)ccc1Nc1nc(OC2CCOCC2)c2c(-c3ccnc(C#N)c3)c[nH]c2n1` [Compound 140, 4-(5-(2-cyanopyridin-4-yl)-4-(tetrahydro-2H-pyran-4-yloxy)-7H-pyrrolo[2,3-d]pyrimidin-2-ylamino)-N,N,3-trimethylbenzamide] are 97% and 103%.
For `CNC(=O)c1ccc(Nc2nc(OC3CCOCC3)c3c(-c4ccc5nc(C)n(C)c5c4)c[nH]c3n2)c(OC)c1` [Compound 148, 4-(5-(1,2-dimethyl-1H-benzo[d]imidazol-6-yl)-4-(tetrahydro-2H-pyran-4-yloxy)-7H-pyrrolo[2,3-d]pyrimidin-2-ylamino)-3-methoxy-N-methylbenzamide] the same measures were 99% and 106%.
As to `CNC(=O)c1ccc(Nc2nc(OC3CCC(C)(O)CC3)c3c(-c4ccc5nc(C)oc5c4)c[nH]c3n2)c(C)c1` (stereo not shown) [Compound 150, 4-(4-((1r,4r)-4-hydroxy-4-methylcyclohexyloxy)-5-(2-methylbenzo[d]oxazol-6-yl)-7H-pyrrolo[2,3-d]pyrimidin-2-ylamino)-N,3-dimethylbenzamide], the inhibition at 3 µM in assay [1] was 99%; in assay [2], 111%.
For `COc1nc(Nc2ccc(C(=O)N(C)C)cc2Cl)nc2[nH]cc(-c3ccncc3)c12` [Compound 157, 3-chloro-4-(4-methoxy-5-(pyridin-4-yl)-7H-pyrrolo[2,3-d]pyrimidin-2-ylamino)-N,N-dimethylbenzamide] the same measures were 95% and 105%.
For `COc1cc(C(=O)NCCO)ccc1Nc1nc(OC(C)C)c2c(-c3ccc4nc(C)oc4c3)c[nH]c2n1` [Compound 160, N-(2-hydroxyethyl)-4-(4-isopropoxy-5-(2-methylbenzo[d]oxazol-6-yl)-7H-pyrrolo[2,3-d]pyrimidin-2-ylamino)-3-methoxybenzamide] the same measures were 98% and 108%.
On the same counts, the results for `CCOc1ccc(-c2c[nH]c3nc(Nc4ccc(C(=O)NC)cc4C)nc(O[C@H]4CCOC4)c23)cn1` [Compound 162, (S)-4-(5-(6-ethoxypyridin-3-yl)-4-(tetrahydrofuran-3-yloxy)-7H-pyrrolo[2,3-d]pyrimidin-2-ylamino)-N,3-dimethylbenzamide] are 100% and 106%.
As to `CNC(=O)c1ccc(Nc2nc(OC3CCOCC3)c3c(-c4ccn(C)n4)c[nH]c3n2)c(OC)c1` [Compound 163, 3-methoxy-N-methyl-4-(5-(1-methyl-1H-pyrazol-3-yl)-4-(tetrahydro-2H-pyran-4-yloxy)-7H-pyrrolo[2,3-d]pyrimidin-2-ylamino)benzamide], the inhibition at 3 µM in assay [1] was determined as 100%; in assay [2], 102%.
In the case of `CNC(=O)c1ccc(Nc2nc(O[C@H]3CCOC3)c3c(-c4ccc5nc(C)oc5c4)c[nH]c3n2)c(OC)c1` [Compound 169, (S)-3-methoxy-N-methyl-4-(5-(2-methylbenzo[d]oxazol-6-yl)-4-(tetrahydrofuran-3-yloxy)-7H-pyrrolo[2,3-d]pyrimidin-2-ylamino)benzamide], the figures for the inhibition at 3 µM in assay [1] and in assay [2] were 100% and 105%, respectively.
For `CNC(=O)c1ccc(Nc2nc(OC3CCOCC3)c3c(-c4cnn(C)c4)c[nH]c3n2)c(OC)c1` [Compound 184, 3-methoxy-N-methyl-4-(5-(1-methyl-1H-pyrazol-4-yl)-4-(tetrahydro-2H-pyran-4-yloxy)-7H-pyrrolo[2,3-d]pyrimidin-2-ylamino)benzamide] the same measures were 101% and 98%.
As to `CNC(=O)c1ccc(Nc2nc(OC(C)C)c3c(-c4ccnc(OC)c4)c[nH]c3n2)c(OC)c1` [Compound 185, 4-(4-isopropoxy-5-(2-methoxypyridin-4-yl)-7H-pyrrolo[2,3-d]pyrimidin-2-ylamino)-3-methoxy-N-methylbenzamide], the inhibition at 3 µM in assay [1] stood at 98%; in assay [2] it was 106%.
For `CNC(=O)c1ccc(Nc2nc(OC(C)C)c3c(-c4ccc(-c5ncc[nH]5)cc4)c[nH]c3n2)c(OC)c1` [Compound 193, 4-(5-(4-(1H-imidazol-2-yl)phenyl)-4-isopropoxy-7H-pyrrolo[2,3-d]pyrimidin-2-ylamino)-3-methoxy-N-methylbenzamide] the same measures were 100% and 99%.
On the same counts, the results for `CNC(=O)c1ccc(Nc2nc(OC3CCOCC3)c3c(-c4ccc(-c5nc(C)c(C)[nH]5)cc4)c[nH]c3n2)c(OC)c1` [Compound 197, 4-(5-(4-(4,5-dimethyl-1H-imidazol-2-yl)phenyl)-4-(tetrahydro-2H-pyran-4-yloxy)-7H-pyrrolo[2,3-d]pyrimidin-2-ylamino)-3-methoxy-N-methylbenzamide] are 100% and 103%.
On the same counts, the results for `CNC(=O)c1ccc(Nc2nc(OC3CCC3)c3c(-c4ccc5nc(C)oc5c4)c[nH]c3n2)c(OC)c1` [Compound 198, 4-(4-cyclobutoxy-5-(2-methylbenzo[d]oxazol-6-yl)-7H-pyrrolo[2,3-d]pyrimidin-2-ylamino)-3-methoxy-N-methylbenzamide] are 93% and 100%.
For `CNC(=O)c1ccc(Nc2nc(OC(C)C)c3c(-c4ccnc(C)c4)c[nH]c3n2)c(OC)c1` [Compound 201, 4-(4-isopropoxy-5-(2-methylpyridin-4-yl)-7H-pyrrolo[2,3-d]pyrimidin-2-ylamino)-3-methoxy-N-methylbenzamide], the inhibition at 3 µM in assay [1] was 100%; in assay [2] it was 103%.
Turning to `CNC(=O)c1ccc(Nc2nc(NC(C)C)c3c(-c4ccc5nc(C)oc5c4)c[nH]c3n2)c(OC)c1` [Compound 202, 4-(4-(isopropylamino)-5-(2-methylbenzo[d]oxazol-6-yl)-7H-pyrrolo[2,3-d]pyrimidin-2-ylamino)-3-methoxy-N-methylbenzamide], the inhibition at 3 µM in assay [1] and in assay [2] was 99% throughout.
`CC[C@@H](C)Oc1nc(Nc2ccc(C(=O)NC)cc2OC)nc2[nH]cc(-c3ccc4nc(C)oc4c3)c12` [Compound 203, (R)-4-(4-sec-butoxy-5-(2-methylbenzo[d]oxazol-6-yl)-7H-pyrrolo[2,3-d]pyrimidin-2-ylamino)-3-methoxy-N-methylbenzamide]: the inhibition at 3 µM is 98% in assay [1] and 99% in assay [2].
